Assay results taken from ChEMBL document CHEMBL2311401, “Molecular determinants of a selective matrix metalloprotease-12 inhibitor: insights from crystallography and thermodynamic studies” (J Med Chem, 2013).
Activity calls are given as the source filed them. No cut-off for these calls is given here.

Columns and labels:
[1] = target: Neutrophil collagenase (Homo sapiens) (UniProt P22894); assay: Inhibition of human MMP8 catalytic domain (21 to 261) using Mca-Pro-Leu-Gly-Leu-Dpa-Ala-Arg-NH2 as substrate by spectrophotometry
Neutrophil collagenase (Homo sapiens), sequence (P22894 101-467 limits assumed): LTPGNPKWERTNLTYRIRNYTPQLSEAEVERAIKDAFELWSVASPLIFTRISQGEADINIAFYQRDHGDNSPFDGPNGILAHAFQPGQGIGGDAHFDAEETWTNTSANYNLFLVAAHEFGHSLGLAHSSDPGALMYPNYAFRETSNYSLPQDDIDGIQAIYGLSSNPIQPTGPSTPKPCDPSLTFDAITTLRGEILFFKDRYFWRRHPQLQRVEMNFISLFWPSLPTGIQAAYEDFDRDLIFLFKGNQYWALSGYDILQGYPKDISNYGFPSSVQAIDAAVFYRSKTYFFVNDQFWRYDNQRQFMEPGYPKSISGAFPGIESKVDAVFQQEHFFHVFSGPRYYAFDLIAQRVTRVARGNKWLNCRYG

[2] = target: Matrix metalloproteinase-9 (Homo sapiens) (UniProt P14780); assay: Inhibition of human MMP9 using Mca-Pro-Leu-Gly-Leu-Dpa-Ala-Arg-NH2 as substrate by spectrophotometry
Matrix metalloproteinase-9 (Homo sapiens), sequence (P14780 whole entry): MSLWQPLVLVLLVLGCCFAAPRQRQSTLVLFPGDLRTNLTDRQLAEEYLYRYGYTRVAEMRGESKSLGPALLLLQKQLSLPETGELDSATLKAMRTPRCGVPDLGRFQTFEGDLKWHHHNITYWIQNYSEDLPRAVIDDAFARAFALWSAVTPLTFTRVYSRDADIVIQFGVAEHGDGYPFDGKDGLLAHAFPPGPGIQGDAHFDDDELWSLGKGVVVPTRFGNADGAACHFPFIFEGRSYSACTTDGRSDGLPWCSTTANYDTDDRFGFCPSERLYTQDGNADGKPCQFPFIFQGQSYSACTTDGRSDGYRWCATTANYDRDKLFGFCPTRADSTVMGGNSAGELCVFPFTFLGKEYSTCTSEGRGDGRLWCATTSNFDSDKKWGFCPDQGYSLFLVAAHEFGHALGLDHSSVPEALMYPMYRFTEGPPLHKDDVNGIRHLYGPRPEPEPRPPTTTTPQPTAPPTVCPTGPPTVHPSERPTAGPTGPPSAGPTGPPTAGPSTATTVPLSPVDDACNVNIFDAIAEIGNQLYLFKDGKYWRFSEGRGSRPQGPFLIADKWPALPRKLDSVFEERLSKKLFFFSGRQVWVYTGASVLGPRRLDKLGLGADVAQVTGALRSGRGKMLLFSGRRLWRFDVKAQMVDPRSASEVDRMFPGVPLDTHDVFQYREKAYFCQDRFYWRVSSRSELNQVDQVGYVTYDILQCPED

[3] = target: Matrix metalloproteinase-14 (Homo sapiens) (UniProt P50281); assay: Inhibition of human MMP14 using Mca-Pro-Leu-Gly-Leu-Dpa-Ala-Arg-NH2 as substrate by spectrophotometry
[4] = target: T1, Macrophage metalloelastase (Homo sapiens, UniProt P39900); assay: Binding affinity to human MMP12 catalytic domain (98 to 266) by isothermal titration calorimetry
Target sequence in this assay (P39900 whole entry, the tested form may be a part): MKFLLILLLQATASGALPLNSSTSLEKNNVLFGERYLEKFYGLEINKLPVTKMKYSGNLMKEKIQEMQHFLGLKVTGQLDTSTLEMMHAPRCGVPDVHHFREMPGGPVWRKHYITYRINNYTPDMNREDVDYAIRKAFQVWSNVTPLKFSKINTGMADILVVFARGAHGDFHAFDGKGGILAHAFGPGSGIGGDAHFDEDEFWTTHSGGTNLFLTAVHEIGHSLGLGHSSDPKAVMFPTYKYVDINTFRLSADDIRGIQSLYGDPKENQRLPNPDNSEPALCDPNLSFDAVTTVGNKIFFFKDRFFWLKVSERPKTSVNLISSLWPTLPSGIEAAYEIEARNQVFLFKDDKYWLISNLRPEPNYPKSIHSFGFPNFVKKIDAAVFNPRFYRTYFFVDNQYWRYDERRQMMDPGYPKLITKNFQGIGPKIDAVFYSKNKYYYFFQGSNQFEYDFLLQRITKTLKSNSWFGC

[5] = target: Collagenase 3 (Homo sapiens) (UniProt P45452); assay: Inhibition of human MMP13 prodomain (20 to 272) using Mca-Pro-Leu-Gly-Leu-Dpa-Ala-Arg-NH2 as substrate by spectrophotometry
[6] = target: 72 kDa type IV collagenase (Homo sapiens) (UniProt P08253); assay: Inhibition of human MMP2 using Mca-Pro-Leu-Gly-Leu-Dpa-Ala-Arg-NH2 as substrate by spectrophotometry
72 kDa type IV collagenase (Homo sapiens), sequence (P08253 110-660 limits assumed): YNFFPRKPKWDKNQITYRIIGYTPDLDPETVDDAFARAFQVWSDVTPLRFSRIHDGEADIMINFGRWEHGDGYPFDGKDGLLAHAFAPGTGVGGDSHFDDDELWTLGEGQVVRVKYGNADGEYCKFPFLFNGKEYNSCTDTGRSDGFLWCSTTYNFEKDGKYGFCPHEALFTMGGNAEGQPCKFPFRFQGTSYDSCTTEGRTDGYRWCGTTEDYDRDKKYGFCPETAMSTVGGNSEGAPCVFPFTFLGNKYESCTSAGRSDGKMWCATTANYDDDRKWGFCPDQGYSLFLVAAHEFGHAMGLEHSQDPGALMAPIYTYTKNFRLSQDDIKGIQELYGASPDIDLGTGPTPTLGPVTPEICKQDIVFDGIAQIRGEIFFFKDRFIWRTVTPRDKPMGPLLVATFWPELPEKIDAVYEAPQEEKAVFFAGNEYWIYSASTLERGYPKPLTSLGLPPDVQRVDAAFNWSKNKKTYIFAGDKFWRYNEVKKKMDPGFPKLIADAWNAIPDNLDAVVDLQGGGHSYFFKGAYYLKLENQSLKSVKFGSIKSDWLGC

[7] = target: Stromelysin-2 (Homo sapiens) (UniProt P09238); assay: Inhibition of human MMP10 using Mca-Pro-Leu-Gly-Leu-Dpa-Ala-Arg-NH2 as substrate by spectrophotometry
Stromelysin-2 (Homo sapiens), sequence (P09238 99-476 limits assumed): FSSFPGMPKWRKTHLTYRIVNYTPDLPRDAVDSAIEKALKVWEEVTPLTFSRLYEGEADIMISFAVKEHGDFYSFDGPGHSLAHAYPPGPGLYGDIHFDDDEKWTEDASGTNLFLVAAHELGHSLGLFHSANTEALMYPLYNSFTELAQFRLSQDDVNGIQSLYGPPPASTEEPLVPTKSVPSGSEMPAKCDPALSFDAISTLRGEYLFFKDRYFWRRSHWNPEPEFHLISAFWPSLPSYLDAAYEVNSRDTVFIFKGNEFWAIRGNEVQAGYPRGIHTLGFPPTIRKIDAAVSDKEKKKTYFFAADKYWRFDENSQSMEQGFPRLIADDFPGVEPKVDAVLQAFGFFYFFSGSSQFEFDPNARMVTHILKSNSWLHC

[8] = target: Stromelysin-1 (Homo sapiens) (UniProt P08254); assay: Inhibition of human MMP3 using Mca-Pro-Leu-Gly-Leu-Dpa-Ala-Arg-NH2 as substrate by spectrophotometry
Stromelysin-1 (Homo sapiens), sequence (P08254 100-477 limits assumed): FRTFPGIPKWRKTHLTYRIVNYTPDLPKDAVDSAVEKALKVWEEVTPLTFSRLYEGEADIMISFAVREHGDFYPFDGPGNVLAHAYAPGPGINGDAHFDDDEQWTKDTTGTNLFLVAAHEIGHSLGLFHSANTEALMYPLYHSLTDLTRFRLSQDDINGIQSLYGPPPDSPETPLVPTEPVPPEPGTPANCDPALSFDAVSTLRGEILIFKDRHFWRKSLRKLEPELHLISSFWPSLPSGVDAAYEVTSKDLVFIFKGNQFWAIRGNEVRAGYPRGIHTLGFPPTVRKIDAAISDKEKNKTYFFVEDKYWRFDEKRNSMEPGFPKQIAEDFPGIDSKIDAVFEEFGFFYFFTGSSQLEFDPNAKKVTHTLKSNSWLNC

[9] = target: T1, Macrophage metalloelastase; assay: Inhibition of human MMP12 catalytic domain (98 to 266) at pH 6.8 by isothermal titration calorimetry
Target sequence in this assay (P39900 whole entry, the tested form may be a part): as the sequence (P39900 whole entry, the tested form may be a part) above

[10] = target: T1, Macrophage metalloelastase; assay: Inhibition of human MMP12 catalytic domain (98 to 266) at pH 6 to 7 by isothermal titration calorimetry
Target sequence in this assay (P39900 106-470 limits assumed): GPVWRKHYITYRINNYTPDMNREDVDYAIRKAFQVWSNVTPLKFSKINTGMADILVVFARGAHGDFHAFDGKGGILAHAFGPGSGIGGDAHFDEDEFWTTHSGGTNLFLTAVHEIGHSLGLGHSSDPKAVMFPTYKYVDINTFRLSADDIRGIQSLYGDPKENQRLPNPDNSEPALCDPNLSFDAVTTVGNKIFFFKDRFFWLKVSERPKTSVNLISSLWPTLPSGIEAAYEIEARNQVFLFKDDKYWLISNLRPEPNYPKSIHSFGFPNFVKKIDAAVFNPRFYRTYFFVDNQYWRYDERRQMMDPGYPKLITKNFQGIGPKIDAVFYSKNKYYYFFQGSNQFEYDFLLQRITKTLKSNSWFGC

With `C[C@H](NC(=O)[C@H](C)NC(=O)[C@H](Cc1cc(-c2ccc(-c3cccc(Cl)c3)cc2)no1)CP(=O)(O)c1ccc(Br)cc1)C(N)=O` as the compound, how does the inhibition [1] read?
The inhibition was “inactive”.

What about the inhibition [2] of the same compound?
Its inhibition is “Active”.

What about the inhibition [3] of the same compound?
Its inhibition is “inactive”.

And the Ki [4]?
Its Ki is 0.28 nM.

What about the inhibition [5] of the same compound?
Its inhibition is “inactive”.

And the inhibition [6]?
Its inhibition is “Active”.

What about the inhibition [7] of the same compound?
Its inhibition is “Active”.

What about the inhibition [8] of the same compound?
Its inhibition is “inactive”.

For `NC(=O)[C@H](CCC(=O)O)NC(=O)[C@H](CCC(=O)O)NC(=O)[C@H](Cc1cc(-c2ccc(-c3cccc(Cl)c3)cc2)no1)CP(=O)(O)c1ccc(Br)cc1`, which Ki [9] is on record?
The Ki was 0.24 nM.

And the INH [10]?
Its INH is 0.044 nM.

What about the inhibition [7] of the same compound?
The inhibition was “Active”.

And the inhibition [8]?
Its inhibition is “Active”.

With `C[C@H](NC(=O)[C@H](C)NC(=O)[C@H](Cc1cc(-c2ccccc2)no1)CP(=O)(O)c1ccc(Br)cc1)C(N)=O` as the compound, how does the inhibition [10] read?
The inhibition was “Active”.

What about the Ki [4] of the same compound?
Its Ki is 14.7 nM.

What about the inhibition [7] of the same compound?
Its inhibition is “Active”.

What about the inhibition [8] of the same compound?
Its inhibition is “Active”.

With `NC(=O)[C@H](CCC(=O)O)NC(=O)[C@H](CCC(=O)O)NC(=O)[C@H](Cc1cc(-c2ccccc2)no1)CP(=O)(O)c1ccc(Br)cc1` as the compound, how does the inhibition [1] read?
The inhibition was “Active”.

What about the inhibition [2] of the same compound?
The inhibition was “Active”.

What about the inhibition [3] of the same compound?
The inhibition was “Active”.

And the Ki [4]?
The Ki was 15.5 nM.

And the inhibition [5]?
The inhibition was “Active”.

What about the inhibition [6] of the same compound?
The inhibition was “Active”.

And the inhibition [7]?
Its inhibition is “Active”.

What about the inhibition [8] of the same compound?
The inhibition was “Active”.
